According to ChEMBL document CHEMBL1201862, “PubChem BioAssay data set” (2004):
Active and inactive are the calls of the source.

What was measured:
P388/ADR = experiment: cells; type: functional; settings: Mus musculus
SN12K1 = experiment: cells; type: functional; settings: Homo sapiens
P388 = experiment: cells; type: functional; settings: Mus musculus
BJ [1] = experiment: cytotoxicity toward BJ-TERT fibroblasts, dose response, cell-based, RAS-independent, luminescence (AID 1933); type: functional; settings: Homo sapiens
BJ [2] = experiment: cells; type: functional, cell-based; settings: Homo sapiens
BJ [3] = experiment: cytotoxicity toward BJ-TERT-LT-ST fibroblasts, dose response, cell-based, RAS-independent, luminescence (AID 1935); type: functional; settings: Homo sapiens;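 further: BJ fibroblasts immortalized with TERT plus LT and ST oncogenes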
[4] = cytotoxicity toward DRD oncogenic fibroblasts, dose response, cell-based, non-viral oncogenic, luminescence (AID 1934); type: functional; settings: Homo sapiens
[5] = cytotoxicity in HEK-293T cells, dose response, cytotoxicity control for TCR NF-kB inhibitor project, luminescence, T-cell screen hits (AID 489026); type: functional, cell-based;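 further: cells exposed to compound about 14 hours before the viability readout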
Cytochrome P450 2C9 = Cytochrome P450 2C9 (Homo sapiens, UniProt P11712)
[6] = inhibitors of PGC1a acetylation in cells, dose response, cell-based, cherry-picked samples (AID 720514); type: functional;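 further: potency may reflect raised or lowered acetylation signal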
Cytochrome P450 2C19 = Cytochrome P450 2C19 (Homo sapiens, UniProt P33261); experiment: Cytochrome panel assay with activity outcomes. Panel member name: p450-cyp2c19 Compounds with AC50 equal or less than 10 uM are considered active; type: functional
Cytochrome P450 2D6 = Cytochrome P450 2D6 (Homo sapiens, UniProt P10635);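 further: CYP2D6 member of a cytochrome P450 panel assay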
Cytochrome P450 3A4 = Cytochrome P450 3A4 (Homo sapiens, UniProt P08684);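 further: CYP3A4 tested as one member of a cytochrome P450 panel screen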
Cytochrome P450 1A2 = target: T1, Cytochrome P450 1A2 (Homo sapiens, UniProt P05177);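 further: PubChem cytochrome P450 panel assay, CYP1A2 panel member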
T1 sequence (P05177 whole entry): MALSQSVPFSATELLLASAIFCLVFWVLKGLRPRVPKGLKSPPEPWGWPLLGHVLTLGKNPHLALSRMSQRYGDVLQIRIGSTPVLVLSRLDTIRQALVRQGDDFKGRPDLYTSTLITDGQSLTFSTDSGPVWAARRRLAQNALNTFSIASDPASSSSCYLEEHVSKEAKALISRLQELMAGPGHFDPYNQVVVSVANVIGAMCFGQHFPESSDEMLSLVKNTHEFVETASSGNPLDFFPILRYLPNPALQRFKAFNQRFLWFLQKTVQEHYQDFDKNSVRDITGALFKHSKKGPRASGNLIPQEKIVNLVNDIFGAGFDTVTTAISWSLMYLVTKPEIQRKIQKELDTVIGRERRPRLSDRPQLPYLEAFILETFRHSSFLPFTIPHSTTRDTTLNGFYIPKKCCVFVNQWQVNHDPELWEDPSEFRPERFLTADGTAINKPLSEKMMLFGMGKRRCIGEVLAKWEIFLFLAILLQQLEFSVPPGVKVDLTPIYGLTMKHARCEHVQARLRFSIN

[7] = target: T2, High affinity choline transporter 1 (Homo sapiens, UniProt Q9GZV3); experiment: CHT inhibitors, dose response, cell-based, 5-point CRC, membrane potential dye (AID 504840); type: functional
T2 sequence (Q9GZV3 whole entry): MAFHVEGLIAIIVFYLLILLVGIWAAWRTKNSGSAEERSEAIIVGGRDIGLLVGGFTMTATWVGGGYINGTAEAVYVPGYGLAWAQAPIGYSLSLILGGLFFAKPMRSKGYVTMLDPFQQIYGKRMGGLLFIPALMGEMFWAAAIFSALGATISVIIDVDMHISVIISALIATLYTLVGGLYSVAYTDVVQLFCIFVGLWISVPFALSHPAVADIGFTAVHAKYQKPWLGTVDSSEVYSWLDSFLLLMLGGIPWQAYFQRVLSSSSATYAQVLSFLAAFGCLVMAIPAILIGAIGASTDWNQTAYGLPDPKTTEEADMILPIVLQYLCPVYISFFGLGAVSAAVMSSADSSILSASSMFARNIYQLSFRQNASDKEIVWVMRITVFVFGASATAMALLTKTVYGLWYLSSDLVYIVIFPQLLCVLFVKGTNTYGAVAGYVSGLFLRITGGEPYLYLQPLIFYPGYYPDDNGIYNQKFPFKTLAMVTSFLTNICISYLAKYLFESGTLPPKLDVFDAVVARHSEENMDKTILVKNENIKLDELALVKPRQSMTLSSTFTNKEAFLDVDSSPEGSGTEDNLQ

[8] = target: T3, Calpain-2 catalytic subunit (Sus scrofa, UniProt P43367); experiment: pig calpain II inhibitor potency, dose response, biochemical, fluorogenic peptide substrate (AID 1420); type: functional
T3 sequence (P43367 whole entry): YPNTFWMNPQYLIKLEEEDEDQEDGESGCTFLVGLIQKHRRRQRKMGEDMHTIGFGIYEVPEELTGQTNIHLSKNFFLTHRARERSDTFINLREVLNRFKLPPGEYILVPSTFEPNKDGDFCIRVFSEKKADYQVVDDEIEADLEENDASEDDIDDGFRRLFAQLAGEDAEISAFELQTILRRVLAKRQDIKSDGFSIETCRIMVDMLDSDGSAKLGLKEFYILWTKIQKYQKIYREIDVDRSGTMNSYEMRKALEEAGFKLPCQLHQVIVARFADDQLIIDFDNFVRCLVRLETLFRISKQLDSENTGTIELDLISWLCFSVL

[9] = Luminescence Cell-Based Dose Retest to Confirm Inhibitors of Cancer Stem Cells. [Related pubchem assays (depositor defined):AID2717, AID2721]; type: functional; settings: Homo sapiens
[10] = target: Heat shock protein HSP 90-alpha (Homo sapiens, UniProt P07900); type: functional, organism-based
Large T antigen = Large T antigen (Simian virus 40, UniProt P03070); type: functional, Betapolyomavirus macacae;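 further: Confirmatory-stage PubChem screen for compounds that inhibit SV40 T antigen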
[11] = inhibitors of HIV Env-driven cell fusion, dose response, cherry-pick (AID 652057); type: functional, cell-based
[12] = ZM109 Env clade C HIV-1 fusion inhibitors, dose response, HeLa effector, CEM target cells, luciferase, cherry-pick (AID 652058); type: functional, cell-based
[13] = inhibitors of clade B AD8 Env fusion, dose response, cell-based, cherry-pick (AID 652062); type: functional;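 further: luciferase signal from cell-cell fusion driven by HIV-1 clade B AD8 Env; potency is for inhibitors of fusion seen as a drop in luminescence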

Chain of Cytochrome P450 2C19 (P33261 whole entry): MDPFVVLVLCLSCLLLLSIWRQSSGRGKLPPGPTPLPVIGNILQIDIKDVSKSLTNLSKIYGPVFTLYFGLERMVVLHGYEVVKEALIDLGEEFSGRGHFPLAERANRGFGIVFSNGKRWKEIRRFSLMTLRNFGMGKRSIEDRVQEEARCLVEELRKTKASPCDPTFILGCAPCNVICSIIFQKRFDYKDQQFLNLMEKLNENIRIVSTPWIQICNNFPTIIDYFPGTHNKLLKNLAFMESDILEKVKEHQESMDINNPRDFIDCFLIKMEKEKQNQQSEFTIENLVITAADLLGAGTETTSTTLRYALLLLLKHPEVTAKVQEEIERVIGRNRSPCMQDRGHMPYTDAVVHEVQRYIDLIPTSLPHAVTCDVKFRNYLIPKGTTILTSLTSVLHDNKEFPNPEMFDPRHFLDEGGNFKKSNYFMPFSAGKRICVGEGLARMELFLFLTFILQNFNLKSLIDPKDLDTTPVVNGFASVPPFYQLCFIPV
Chain of Cytochrome P450 2C9 (P11712 whole entry): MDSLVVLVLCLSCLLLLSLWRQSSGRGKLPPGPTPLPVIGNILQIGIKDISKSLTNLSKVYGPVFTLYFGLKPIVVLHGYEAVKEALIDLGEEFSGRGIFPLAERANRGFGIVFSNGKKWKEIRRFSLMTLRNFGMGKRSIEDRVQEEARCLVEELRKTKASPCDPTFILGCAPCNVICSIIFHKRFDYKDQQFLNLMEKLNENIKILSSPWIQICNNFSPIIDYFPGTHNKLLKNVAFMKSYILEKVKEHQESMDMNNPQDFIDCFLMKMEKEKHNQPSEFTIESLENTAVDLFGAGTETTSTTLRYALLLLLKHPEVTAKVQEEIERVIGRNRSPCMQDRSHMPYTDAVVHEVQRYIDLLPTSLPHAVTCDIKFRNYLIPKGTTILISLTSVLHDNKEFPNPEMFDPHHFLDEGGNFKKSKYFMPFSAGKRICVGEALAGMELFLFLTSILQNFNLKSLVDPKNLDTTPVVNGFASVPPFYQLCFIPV
Chain of Large T antigen (P03070 whole entry, the tested form may be a part): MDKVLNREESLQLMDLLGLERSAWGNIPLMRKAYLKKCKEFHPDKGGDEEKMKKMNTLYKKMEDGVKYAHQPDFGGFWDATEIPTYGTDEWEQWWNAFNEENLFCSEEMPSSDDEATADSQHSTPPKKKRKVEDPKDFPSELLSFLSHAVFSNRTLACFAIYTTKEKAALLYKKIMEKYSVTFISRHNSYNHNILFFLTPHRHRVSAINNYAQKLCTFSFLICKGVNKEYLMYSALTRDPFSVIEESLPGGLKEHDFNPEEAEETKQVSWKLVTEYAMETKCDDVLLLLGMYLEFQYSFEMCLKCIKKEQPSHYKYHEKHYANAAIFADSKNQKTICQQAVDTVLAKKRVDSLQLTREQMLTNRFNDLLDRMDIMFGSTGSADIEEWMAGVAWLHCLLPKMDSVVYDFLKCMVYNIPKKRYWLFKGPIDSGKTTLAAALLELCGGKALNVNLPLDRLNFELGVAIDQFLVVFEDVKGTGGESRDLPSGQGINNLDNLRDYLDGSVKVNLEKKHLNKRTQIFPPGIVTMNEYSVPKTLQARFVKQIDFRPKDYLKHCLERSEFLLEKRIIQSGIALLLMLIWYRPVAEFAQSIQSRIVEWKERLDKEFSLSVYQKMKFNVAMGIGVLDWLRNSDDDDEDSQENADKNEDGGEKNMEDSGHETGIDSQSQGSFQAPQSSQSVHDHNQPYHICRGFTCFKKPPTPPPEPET
Chain of Cytochrome P450 3A4 (P08684 whole entry): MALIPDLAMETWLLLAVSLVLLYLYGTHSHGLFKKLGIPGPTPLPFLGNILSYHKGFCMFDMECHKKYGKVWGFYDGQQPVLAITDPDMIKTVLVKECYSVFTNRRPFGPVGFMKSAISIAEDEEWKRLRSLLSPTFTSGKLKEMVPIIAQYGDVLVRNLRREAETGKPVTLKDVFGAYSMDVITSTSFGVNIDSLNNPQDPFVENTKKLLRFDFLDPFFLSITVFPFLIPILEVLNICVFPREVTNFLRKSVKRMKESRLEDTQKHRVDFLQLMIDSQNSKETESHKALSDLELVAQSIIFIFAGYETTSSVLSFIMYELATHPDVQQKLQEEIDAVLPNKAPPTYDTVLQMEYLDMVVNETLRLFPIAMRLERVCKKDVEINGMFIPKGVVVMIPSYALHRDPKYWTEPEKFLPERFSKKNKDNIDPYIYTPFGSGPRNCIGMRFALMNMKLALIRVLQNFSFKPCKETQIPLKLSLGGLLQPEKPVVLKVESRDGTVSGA
Chain of Cytochrome P450 2D6 (P10635 whole entry): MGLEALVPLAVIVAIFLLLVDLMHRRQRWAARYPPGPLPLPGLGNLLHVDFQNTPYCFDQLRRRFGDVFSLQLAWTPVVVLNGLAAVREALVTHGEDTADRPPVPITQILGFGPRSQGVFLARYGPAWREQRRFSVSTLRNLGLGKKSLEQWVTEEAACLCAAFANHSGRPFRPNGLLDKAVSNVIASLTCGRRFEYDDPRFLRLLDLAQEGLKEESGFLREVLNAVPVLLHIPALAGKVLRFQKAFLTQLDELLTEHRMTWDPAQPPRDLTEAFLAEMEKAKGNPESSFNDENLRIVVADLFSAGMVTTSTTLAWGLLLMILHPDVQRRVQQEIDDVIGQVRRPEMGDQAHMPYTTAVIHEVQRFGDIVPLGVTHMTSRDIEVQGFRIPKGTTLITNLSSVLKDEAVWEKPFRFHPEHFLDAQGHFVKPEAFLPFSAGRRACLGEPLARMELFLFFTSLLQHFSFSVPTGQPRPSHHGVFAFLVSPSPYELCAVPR

For `O=NN(CCF)C(=O)NC1CCSCC1`, the GI50 (P388/ADR) was > 100 µM (inactive), the GI50 (SN12K1) was > 100 µM (inactive) and the GI50 (P388) was > 100 µM (inactive).
In the case of `Cc1ccc(C(=O)c2cc([N+](=O)[O-])ccc2N2CCOCC2)cc1C`, the EC50 (BJ [1]) is reported as 3.06 µM (active), the EC50 (BJ [2]) is reported as 73.8 µM (inconclusive) and the EC50 (BJ [3]) is reported as 1.75 µM (active). The EC50 [4] was 1.6 µM (inconclusive) and the IC50 [5] was > 80 µM (inactive).
With `CSc1ccccc1N1CCN(C(=O)Nc2ccc3c(c2)NC(=O)CO3)CC1` the AC50 (Cytochrome P450 2C9) was “inconclusive”.
In the case of `Cc1ccc(C2CC2c2nnc(S)n2-c2ccc(Cl)cc2)cc1` (stereo not drawn), the AC50 [6] is reported as 37.2 µM (active).
In the case of `C[C@@H](COc1ccc(/C=C\c2ccccc2)cc1)[N+](C)(C)C`, the AC50 (Cytochrome P450 2C19) is reported as “inconclusive”, the AC50 (Cytochrome P450 2D6) is reported as 3.16 µM (inconclusive) and the AC50 (Cytochrome P450 3A4) is reported as 10 µM (inconclusive). The AC50 (Cytochrome P450 2C9) was “inconclusive”.
For `COCCNC(=O)c1cc(-c2cccc(OC)c2)on1`, the AC50 (Cytochrome P450 2C19; read-out: AC50) was 28.2 µM (inconclusive) and the AC50 (Cytochrome P450 2C9) was “inconclusive”.
With `CCOc1cc(C#N)c(NC(=O)c2cccnc2)cc1OCC` the IC50 [5] was > 80 µM (inactive) and the AC50 (Cytochrome P450 2C9) was “inconclusive”.
In the case of `COc1ccc(C2=NOC(C(=O)NCc3ccco3)C2)cc1OC` (stereo not drawn), the AC50 (Cytochrome P450 2C19) is reported as “inconclusive”, the AC50 (Cytochrome P450 1A2) is reported as 39.8 µM (inconclusive) and the AC50 (Cytochrome P450 2C9) is reported as “inconclusive”.
With `O=C(NNC(=S)Nc1ccccc1)c1cc(Br)ccc1Cl` the IC50 [7] was 12.6 µM (active).
For `CCc1ccccc1NC(=O)c1nnn(CC(=O)Nc2ccccc2C)c1N`, the AC50 (Cytochrome P450 3A4) was 25.1 µM (inconclusive) and the AC50 (Cytochrome P450 2C9) was “inconclusive”.
With `O=C1C2CCCCC2C(=O)N1c1ccc(NC2CCN(Cc3ccccc3)CC2)c([N+](=O)[O-])c1` (stereo not drawn) the IC50 [8] was > 50 µM (not active).
In the case of `CC(C)Oc1ccc(C(=O)/C=C2/C(=O)Nc3ccccc32)cc1`, the AC50 [9] is reported as 4.39 µM (active) and the AC50 [10] is reported as 1.94 µM (active).
For `O=C(O)/C(=C\c1ccccc1OC(F)F)Sc1nnc(-c2ccc(F)cc2)o1`, the IC50 [7] was 19.1 µM (active).
In the case of `Cc1ccc2c(c1)N(CCC(=O)N1CCC3(CC1)OCCO3)C(=O)C(C)O2` (stereo not drawn), the AC50 (Cytochrome P450 1A2) is reported as 0.00631 µM (inconclusive) and the AC50 (Cytochrome P450 2C9) is reported as “inconclusive”.
For `COc1cccc(NC(S)=Nc2ccc(O)cc2)c1`, the IC50 (Large T antigen) was 5.64 µM (active).
For `COc1nc(O)c(N)c(NC2OC(CO)C(O)C(O)C2O)n1` (stereo not drawn), the GI50 (P388/ADR) was 38.5 µM (inactive), the GI50 (SN12K1) was > 100 µM (inactive) and the GI50 (P388) was 13.3 µM (inactive).
For `CCC(C(C)N1CC(=O)NC(=O)C1)N1CC(=O)NC(=O)C1` (stereo not drawn), the GI50 (P388/ADR) was 6.12 µM (inactive) and the GI50 (P388) was < 0.0316 µM (active).
For `CCCCSCC(NC(=O)/C=C/c1c(C)[nH]c(=O)[nH]c1=O)C(=O)OC` (stereo not drawn), the GI50 (P388/ADR) was 141 µM (inactive), the GI50 (SN12K1) was 17.6 µM (inactive) and the GI50 (P388) was 55.2 µM (inactive).
With `O=C(O)C1Cc2c([nH]c3ccccc23)C=N1` (stereo not drawn) the GI50 (P388/ADR) was > 100 µM (inactive) and the GI50 (P388) was > 100 µM (inactive).
In the case of `COc1cccc2c1C(=O)c1c(O)c3c(c(O)c1C2=O)C[C@@](O)(C(=O)CO)C[C@@H]3OC1CC(N)CC(C)O1` (stereo partly drawn), the GI50 (P388/ADR) is reported as 0.367 µM (active), the GI50 (SN12K1) is reported as 0.02 µM (active) and the GI50 (P388) is reported as 0.0349 µM (active).
In the case of `CCOc1cc(/C=N/Nc2ccc(C(=O)O)cc2)ccc1OC(=O)c1ccccc1C`, the IC50 [8] is reported as 5.07 µM (active).
In the case of `CC1(C)CC23C4COC(=O)C2CCC1C3CC4=O` (stereo not drawn), the GI50 (P388/ADR) is reported as 1.5 µM (inactive), the GI50 (SN12K1) is reported as 14.4 µM (inactive) and the GI50 (P388) is reported as 2.9 µM (inactive).
For `COc1cc(/C=C/C(=O)Oc2ccc(NC(C)=O)cc2)ccc1C(=O)OCc1ccccc1`, the GI50 (P388/ADR) was 0.69 µM (active), the GI50 (SN12K1) was 36.5 µM (inactive) and the GI50 (P388) was 2.28 µM (inactive).
In the case of `O=Cc1c(Br)[nH]c2ccccc12`, the GI50 (P388/ADR) is reported as 68.9 µM (inactive), the GI50 (SN12K1) is reported as > 100 µM (inactive) and the GI50 (P388) is reported as > 55.5 µM (inactive).
With `O=C(C[C@H]1C[C@@H]2c3cc(NS(=O)(=O)c4ccc(F)cc4)ccc3O[C@@H]2[C@H](CO)O1)NCCc1ccccc1` the AC50 [11] was 0.666 µM (active), the AC50 [12] was 1.2 µM (active) and the AC50 [13] was 8.44 µM (active).
With `COc1ccc(NC(=O)Nc2ccc3c(c2)CC(=O)N([C@H](C)CO)C[C@H](C)[C@H](CN(C)S(=O)(=O)c2ccccc2)O3)cc1` the AC50 [11] was < 0.26 µM (active), the AC50 [12] was < 0.26 µM (active) and the AC50 [13] was 0.981 µM (active).
With `C[C@H]1CCCCO[C@H](CN(C)Cc2ccc3c(c2)OCO3)[C@@H](C)CN([C@@H](C)CO)C(=O)c2cc(NC(=O)Nc3ccc(C(F)(F)F)cc3)ccc2O1` the AC50 [6] was 12.1 µM (active).
With `C(=C\c1ccccc1)/C=N/N1CCN(Cc2ccccc2)CC1` the IC50 [8] was > 50 µM (not active).
In the case of `COc1cc(/C=N/NC(=O)c2ccc(Cn3cc([N+](=O)[O-])cn3)o2)cc(Br)c1O`, the IC50 (Large T antigen) is reported as 24 µM (active).
